According to ChEMBL document CHEMBL1152441, “Discovery of [18F]N-(2-(diethylamino)ethyl)-6-fluoronicotinamide: a melanoma positron emission tomography imaging radiotracer with high tumor to body contrast ratio and rapid renal clearance” (J Med Chem, 2009):

How the values were obtained:
[1] = Biodistribution in eye of mouse B16F0 cells implanted C57BL/6J mouse assessed per gram of tissue at 0.4 to 5.5 MBq, iv after 0.25 hrs by gamma counter; type: ADME, organism-based; settings: in vivo
[2] = Biodistribution in tumor of mouse B16F0 cells implanted C57BL/6J mouse assessed per gram of tissue at 0.4 to 5.5 MBq, iv after 6 hrs by gamma counter; type: ADME, organism-based, Neoplasm; settings: in vivo
[3] = Biodistribution in tumor of mouse B16F0 cells implanted C57BL/6J mouse assessed per gram of tissue at 0.4 to 5.5 MBq, iv after 3 hrs by gamma counter; type: ADME, organism-based, Neoplasm; settings: in vivo
[4] = Biodistribution in tumor of mouse B16F0 cells implanted C57BL/6J mouse assessed per gram of tissue at 0.4 to 5.5 MBq, iv after 1 hr by gamma counter; type: ADME, organism-based, Neoplasm; settings: in vivo
[5] = Biodistribution in tumor of mouse B16F0 cells implanted C57BL/6J mouse assessed per gram of tissue at 0.4 to 5.5 MBq, iv after 0.25 hrs by gamma counter; type: ADME, organism-based, Neoplasm; settings: in vivo
[6] = Lipophilicity, log P at pH 7.5; type: physicochemical; settings: buffer
Bone [7] = experiment: Biodistribution in bone of mouse B16F0 cells implanted C57BL/6J mouse assessed per gram of tissue at 0.4 to 5.5 MBq, iv after 6 hrs by gamma counter; type: ADME, organism-based, Bone element; settings: in vivo
Bone [8] = experiment: Biodistribution in bone of mouse B16F0 cells implanted C57BL/6J mouse assessed per gram of tissue at 0.4 to 5.5 MBq, iv after 3 hrs by gamma counter; type: ADME, organism-based, Bone element; settings: in vivo
Bone [9] = experiment: Biodistribution in bone of mouse B16F0 cells implanted C57BL/6J mouse assessed per gram of tissue at 0.4 to 5.5 MBq, iv after 1 hr by gamma counter; type: ADME, organism-based, Bone element; settings: in vivo
Bone [10] = experiment: Biodistribution in bone of mouse B16F0 cells implanted C57BL/6J mouse assessed per gram of tissue at 0.4 to 5.5 MBq, iv after 0.25 hrs by gamma counter; type: ADME, organism-based, Bone element; settings: in vivo
Intestine [11] = experiment: Biodistribution in intestine of mouse B16F0 cells implanted C57BL/6J mouse assessed per gram of tissue at 0.4 to 5.5 MBq, iv after 6 hrs by gamma counter; type: ADME, organism-based; settings: in vivo
Intestine [12] = experiment: Biodistribution in intestine of mouse B16F0 cells implanted C57BL/6J mouse assessed per gram of tissue at 0.4 to 5.5 MBq, iv after 3 hrs by gamma counter; type: ADME, organism-based; settings: in vivo
Intestine [13] = experiment: Biodistribution in intestine of mouse B16F0 cells implanted C57BL/6J mouse assessed per gram of tissue at 0.4 to 5.5 MBq, iv after 1 hr by gamma counter; type: ADME, organism-based; settings: in vivo
Intestine [14] = experiment: Biodistribution in intestine of mouse B16F0 cells implanted C57BL/6J mouse assessed per gram of tissue at 0.4 to 5.5 MBq, iv after 0.25 hrs by gamma counter; type: ADME, organism-based; settings: in vivo
Stomach [15] = experiment: Biodistribution in stomach of mouse B16F0 cells implanted C57BL/6J mouse assessed per gram of tissue at 0.4 to 5.5 MBq, iv after 6 hrs by gamma counter; type: ADME, organism-based; settings: in vivo
Stomach [16] = experiment: Biodistribution in stomach of mouse B16F0 cells implanted C57BL/6J mouse assessed per gram of tissue at 0.4 to 5.5 MBq, iv after 3 hrs by gamma counter; type: ADME, organism-based; settings: in vivo
Stomach [17] = experiment: Biodistribution in stomach of mouse B16F0 cells implanted C57BL/6J mouse assessed per gram of tissue at 0.4 to 5.5 MBq, iv after 1 hr by gamma counter; type: ADME, organism-based; settings: in vivo
Stomach [18] = experiment: Biodistribution in stomach of mouse B16F0 cells implanted C57BL/6J mouse assessed per gram of tissue at 0.4 to 5.5 MBq, iv after 0.25 hrs by gamma counter; type: ADME, organism-based; settings: in vivo
Thyroid gland [19] = experiment: Biodistribution in thyroid of mouse B16F0 cells implanted C57BL/6J mouse assessed per gram of tissue at 0.4 to 5.5 MBq, iv after 6 hrs by gamma counter; type: ADME, organism-based; settings: in vivo
Thyroid gland [20] = experiment: Biodistribution in thyroid of mouse B16F0 cells implanted C57BL/6J mouse assessed per gram of tissue at 0.4 to 5.5 MBq, iv after 3 hrs by gamma counter; type: ADME, organism-based; settings: in vivo
Thyroid gland [21] = experiment: Biodistribution in thyroid of mouse B16F0 cells implanted C57BL/6J mouse assessed per gram of tissue at 0.4 to 5.5 MBq, iv after 1 hr by gamma counter; type: ADME, organism-based; settings: in vivo
Thyroid gland [22] = experiment: Biodistribution in thyroid of mouse B16F0 cells implanted C57BL/6J mouse assessed per gram of tissue at 0.4 to 5.5 MBq, iv after 0.25 hrs by gamma counter; type: ADME, organism-based; settings: in vivo
Spleen [23] = experiment: Biodistribution in spleen of mouse B16F0 cells implanted C57BL/6J mouse assessed per gram of tissue at 0.4 to 5.5 MBq, iv after 6 hrs by gamma counter; type: ADME, organism-based; settings: in vivo
Spleen [24] = experiment: Biodistribution in spleen of mouse B16F0 cells implanted C57BL/6J mouse assessed per gram of tissue at 0.4 to 5.5 MBq, iv after 3 hrs by gamma counter; type: ADME, organism-based; settings: in vivo
Spleen [25] = experiment: Biodistribution in spleen of mouse B16F0 cells implanted C57BL/6J mouse assessed per gram of tissue at 0.4 to 5.5 MBq, iv after 1 hr by gamma counter; type: ADME, organism-based; settings: in vivo
Spleen [26] = experiment: Biodistribution in spleen of mouse B16F0 cells implanted C57BL/6J mouse assessed per gram of tissue at 0.4 to 5.5 MBq, iv after 0.25 hrs by gamma counter; type: ADME, organism-based; settings: in vivo
Lung [27] = experiment: Biodistribution in lung of mouse B16F0 cells implanted C57BL/6J mouse assessed per gram of tissue at 0.4 to 5.5 MBq, iv after 6 hrs by gamma counter; type: ADME, organism-based; settings: in vivo
Lung [28] = experiment: Biodistribution in lung of mouse B16F0 cells implanted C57BL/6J mouse assessed per gram of tissue at 0.4 to 5.5 MBq, iv after 3 hrs by gamma counter; type: ADME, organism-based; settings: in vivo
Lung [29] = experiment: Biodistribution in lung of mouse B16F0 cells implanted C57BL/6J mouse assessed per gram of tissue at 0.4 to 5.5 MBq, iv after 1 hr by gamma counter; type: ADME, organism-based; settings: in vivo
Lung [30] = experiment: Biodistribution in lung of mouse B16F0 cells implanted C57BL/6J mouse assessed per gram of tissue at 0.4 to 5.5 MBq, iv after 0.25 hrs by gamma counter; type: ADME, organism-based; settings: in vivo
[31] = Biodistribution in eye of mouse B16F0 cells implanted C57BL/6J mouse assessed per gram of tissue at 0.4 to 5.5 MBq, iv after 6 hrs by gamma counter; type: ADME, organism-based; settings: in vivo
[32] = Biodistribution in eye of mouse B16F0 cells implanted C57BL/6J mouse assessed per gram of tissue at 0.4 to 5.5 MBq, iv after 3 hrs by gamma counter; type: ADME, organism-based; settings: in vivo
[33] = Biodistribution in eye of mouse B16F0 cells implanted C57BL/6J mouse assessed per gram of tissue at 0.4 to 5.5 MBq, iv after 1 hr by gamma counter; type: ADME, organism-based; settings: in vivo

SMILES | Drug uptake [1] [%] | Drug uptake [2] [%] | Drug uptake [3] [%] | Drug uptake [4] [%] | Drug uptake [5] [%] | logD [6] | Drug uptake (Bone [7]) [%] | Drug uptake (Bone [8]) [%] | Drug uptake (Bone [9]) [%] | Drug uptake (Bone [10]) [%] | Drug uptake (Intestine [11]) [%] | Drug uptake (Intestine [12]) [%] | Drug uptake (Intestine [13]) [%] | Drug uptake (Intestine [14]) [%] | Drug uptake (Stomach [15]) [%] | Drug uptake (Stomach [16]) [%] | Drug uptake (Stomach [17]) [%] | Drug uptake (Stomach [18]) [%] | Drug uptake (Thyroid gland [19]) [%] | Drug uptake (Thyroid gland [20]) [%] | other results
CCN(CC)CCNC(=O)c1ccnc([18F])c1 | 17.3 | 7.2 | 8.8 | 12.2 | 7 | 1.22 | 0.43 | 0.77 | 1.5 | 4 | 0.23 | 0.72 | 2.9 | 7 | 0.3 | 0.82 | 5.3 | 13.2 | 1 | 1.5 | Drug uptake (Thyroid gland [21]): 2.2%; Drug uptake (Thyroid gland [22]): 4.8%; Drug uptake (Spleen [23]): 1.3%; Drug uptake (Spleen [24]): 2.3%; Drug uptake (Spleen [25]): 3.2%; Drug uptake (Spleen [26]): 10.3%; Drug uptake (Lung [27]): 0.14%; Drug uptake (Lung [28]): 0.37%; Drug uptake (Lung [29]): 1.8%; Drug uptake (Lung [30]): 5.7%; Drug uptake [31]: 16.5%; Drug uptake [32]: 18.8%; Drug uptake [33]: 23.7%
CCCCN(C)CCCCNC(=O)c1ccc([18F])nc1 | 11.3 | 5.3 | 5.3 | 4.8 | 4 | 1.52 | 1 | 1.4 | 2 | 3.89 | 3.1 | 4.2 | 5.8 | 8.2 | 1.8 | 2.4 | 3.3 | 8.5 | 2 | 2.9 | Drug uptake (Thyroid gland [21]): 5.4%; Drug uptake (Thyroid gland [22]): 10.2%; Drug uptake (Spleen [23]): 4.1%; Drug uptake (Spleen [24]): 5.3%; Drug uptake (Spleen [25]): 7.4%; Drug uptake (Spleen [26]): 11.2%; Drug uptake (Lung [27]): 2.2%; Drug uptake (Lung [28]): 3.1%; Drug uptake (Lung [29]): 4.5%; Drug uptake (Lung [30]): 12.1%; Drug uptake [31]: 15.8%; Drug uptake [32]: 14.3%; Drug uptake [33]: 12.7%
